Measured values: the supplement of paper PMC13207355
Structures can show the parent of a compound that is named as a salt.

Experiments:
Conditions in all cases: exposure time: 72 h
[1] = tested on: E57 (patient-derived glioblastoma stem cells of mesenchymal subtype); assay: surviving fraction (nuclei count normalised to DMSO); higher = more cells surviving (less toxic)
[2] = tested on: E31 (patient-derived glioblastoma stem cells of proneural subtype); assay: as above
[3] = tested on: E21 (patient-derived glioblastoma stem cells of mesenchymal subtype); assay: as above
[4] = tested on: FT3469 (normal neural stem cell line); assay: as above
[5] = tested on: E34 (patient-derived glioblastoma stem cells of proneural subtype); assay: as above
[6] = tested on: E28 (patient-derived glioblastoma stem cells of classical subtype); assay: as above
[7] = tested on: E13 (patient-derived glioblastoma stem cells of classical subtype); assay: as above
[8] = tested on: E57; assay: phenotypic distance (Euclidean, principal components) from DMSO controls (arbitrary units); higher = stronger morphological change
[9] = tested on: E31; assay: as above
[10] = tested on: E21; assay: as above
[11] = tested on: FT3469; assay: as above
[12] = tested on: E34; assay: as above
[13] = tested on: E28; assay: as above
[14] = tested on: E13; assay: as above
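For phenotypic distance (Euclidean, principal components) from DMSO controls in this document: cell Painting imaging in 384-well plates, CellProfiler features reduced to at least 20 principal components, Euclidean distance versus same-plate DMSO vehicle wells (0.1% v/v), median over six images per well.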
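For surviving fraction (nuclei count normalised to DMSO) in this document: nuclei counted by high-content imaging of Hoechst-stained cells in laminin-coated 384-well plates, relative to 0.1% DMSO vehicle wells, with staurosporine as cell-death control.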

CCC(C)(C)c1ccc(CC(C)CN2C[C@@H](C)O[C@@H](C)C2)cc1 (stereo partly drawn) [Amorolfine hydrochloride]
Conditions	phenotypic distance	surviving fraction
[1], 4.1 nM	–	1
[1], 12.3 nM	–	0.954
[1], 37 nM	–	1.05
[1], 111.1 nM	–	1.02
[1], 333.3 nM	–	0.957
[1], 1000 nM	–	0.983
[1], 3000 nM	–	1.02
[2], 4.1 nM	–	0.939
[2], 12.3 nM	–	0.934
[2], 37 nM	–	0.967
[2], 111.1 nM	–	0.983
[2], 333.3 nM	–	1.05
[2], 1000 nM	–	0.996
[2], 3000 nM	–	0.804
[3], 4.1 nM	–	0.94
[3], 12.3 nM	–	1.02
[3], 37 nM	–	0.982
[3], 111.1 nM	–	1.09
[3], 333.3 nM	–	1.03
[3], 1000 nM	–	1.07
[3], 3000 nM	–	0.816
[4], 4.1 nM	–	1.01
[4], 12.3 nM	–	0.924
[4], 37 nM	–	1.24
[4], 111.1 nM	–	1.1
[4], 333.3 nM	–	1.02
[4], 1000 nM	–	0.973
[4], 3000 nM	–	1.02
[5], 4.1 nM	–	0.983
[5], 12.3 nM	–	1.06
[5], 37 nM	–	0.937
[5], 111.1 nM	–	1.06
[5], 333.3 nM	–	1.09
[5], 1000 nM	–	1.14
[5], 3000 nM	–	0.815
[6], 4.1 nM	–	1.09
[6], 12.3 nM	–	0.852
[6], 37 nM	–	1.21
[6], 111.1 nM	–	0.914
[6], 333.3 nM	–	1.17
[6], 1000 nM	–	0.839
[6], 3000 nM	–	0.777
[7], 4.1 nM	–	0.95
[7], 12.3 nM	–	0.95
[7], 37 nM	–	1
[7], 111.1 nM	–	0.97
[7], 333.3 nM	–	0.959
[7], 1000 nM	–	0.957
[7], 3000 nM	–	0.638
[8], 4.1 nM	0.935	–
[8], 12.3 nM	0.283	–
[8], 37 nM	0.726	–
[8], 111.1 nM	0.552	–
[8], 333.3 nM	0.896	–
[8], 1000 nM	1.08	–
[8], 3000 nM	2.02	–
[9], 4.1 nM	0.639	–
[9], 12.3 nM	0.653	–
[9], 37 nM	0.833	–
[9], 111.1 nM	0.88	–
[9], 333.3 nM	0.504	–
[9], 1000 nM	1.35	–
[9], 3000 nM	2.01	–
[10], 4.1 nM	0.885	–
[10], 12.3 nM	0.483	–
[10], 37 nM	0.732	–
[10], 111.1 nM	0.989	–
[10], 333.3 nM	1.11	–
[10], 1000 nM	1.17	–
[10], 3000 nM	1.97	–
[11], 4.1 nM	1.11	–
[11], 12.3 nM	0.614	–
[11], 37 nM	1.09	–
[11], 111.1 nM	0.588	–
[11], 333.3 nM	0.893	–
[11], 1000 nM	0.525	–
[11], 3000 nM	1.13	–
[12], 4.1 nM	0.551	–
[12], 12.3 nM	1.11	–
[12], 37 nM	1.1	–
[12], 111.1 nM	1.17	–
[12], 333.3 nM	0.856	–
[12], 1000 nM	0.796	–
[12], 3000 nM	1.7	–
[13], 4.1 nM	0.829	–
[13], 12.3 nM	0.874	–
[13], 37 nM	0.838	–
[13], 111.1 nM	0.682	–
[13], 333.3 nM	0.846	–
[13], 1000 nM	0.746	–
[13], 3000 nM	1.38	–
[14], 4.1 nM	0.768	–
[14], 12.3 nM	0.554	–
[14], 37 nM	0.708	–
[14], 111.1 nM	0.428	–
[14], 333.3 nM	0.915	–
[14], 1000 nM	1.17	–
[14], 3000 nM	3.08	–
